According to paper PMC7265429, “Characterization of a new small-molecule inhibitor of HDAC6 in glioblastoma” (Cell Death & Disease, 2020):

Tested on: GNS166 cells
Test: Microarray whole-transcriptome gene expression analysis
Type: cell-based, human
Conditions: DMSO vs SAHA, downregulated
Experimental: Whole-transcriptome analysis was performed from 300 ng of RNA using HuGene-2_0-st-v1 expression array (Affymetrix), which covers 48,226 transcripts. Raw data were first checked for quality purposes through the Affymetrix® Expression Console™ Software v1.4.1 and TAC software v4.0. Then, data were normalized using the Robust Multi-array Average (RMA) and analyzed by Limma tool. Probesets with FDR-corrected p-values smaller than 0.05 were selected. Functional enrichment on Gene Ontology (GO) biological processes was performed on a smaller subset of the differentially expressed genes (corrected p-value < 0.001) by means of Broad Institute GSEA. […] The data that support this study have been deposited in NCBI´s Gene Expression Omnibus and are accessible through GEO series accession number GSE143887.

O=C(CCCCCCC(=O)Nc1ccccc1)NO [SAHA, Suberoylanilide hydroxamic acid]
logFC GTF2IRD2 (transcript TC0700011518.hg.1): -2.067 | logFC GBAS (transcript TC0700013363.hg.1): -1.318 | logFC NDUFB2 (transcript TC0700013468.hg.1): -1.3 | logFC MSRA (transcript TC0800006692.hg.1): -1.45 | logFC CYC1 (transcript TC0800009239.hg.1): -1.06 | logFC PBK (transcript TC0800009970.hg.1): -1.706 | logFC ANK1 (transcript TC0800010252.hg.1): -2.257 | logFC NSMAF (transcript TC0800010553.hg.1): -1.838 | logFC CPA6 (transcript TC0800010708.hg.1): -2.501 | logFC HAS2 (transcript TC0800011646.hg.1): -1.946 | logFC FXN (transcript TC0900007494.hg.1): -0.9868 | logFC NEK6 (transcript TC0900008716.hg.1): -1.139 | logFC ARHGEF39 (transcript TC0900009948.hg.1): -1.156 | logFC KIAA0368 (transcript TC0900011200.hg.1): -1.9364 | logFC SUSD1 (transcript TC0900011220.hg.1): -2.309 | logFC PHF19 (transcript TC0900011388.hg.1): -2.061 | logFC CIZ1 (transcript TC0900011626.hg.1): -1.331 | logFC TOR1A (transcript TC0900011709.hg.1): -1.605 | logFC VAV2 (transcript TC0900011864.hg.1): -1.105 | logFC ANAPC16 (transcript TC1000007986.hg.1): -1.273 | logFC PLEKHS1 (transcript TC1000008955.hg.1): -2.168 | logFC SEPHS1 (transcript TC1000009844.hg.1): -1.411 | logFC EPC1 (transcript TC1000010256.hg.1): -1.207 | logFC PBLD (transcript TC1000010843.hg.1): -1.5 | logFC DNAJB12 (transcript TC1000010990.hg.1): -1.539 | logFC PRDX3 (transcript TC1000011993.hg.1): -0.8845 | logFC MKI67 (transcript TC1000012235.hg.1): -1.335 | logFC AS3MT (transcript TC1000012496.hg.1): -1.5939 | logFC PARVA (transcript TC1100006879.hg.1): -1.499 | logFC CCND1 (transcript TC1100008236.hg.1): -0.9478 | logFC TSKU (transcript TC1100008514.hg.1): -1.319 | logFC NTM (transcript TC1100009561.hg.1): -2.198 | logFC IFITM3 (transcript TC1100009657.hg.1): -1.487 | logFC FOSL1 (transcript TC1100011259.hg.1): -2.603 | logFC TRIM22 (transcript TC1100012957.hg.1): -3.047 | logFC CHEK1 (transcript TC1100013111.hg.1): -0.9424 | logFC CDCA5 (transcript TC1100013184.hg.1): -1.4587 | logFC CLCF1 (transcript TC1100013192.hg.1): -1.898 | logFC TSPAN9 (transcript TC1200006520.hg.1): -1.358 | logFC RAD51AP1 (transcript TC1200006561.hg.1): -1.95 | logFC C12orf57 (transcript TC1200006656.hg.1): -1.605 | logFC ESPL1 (transcript TC1200007707.hg.1): -1.687 | logFC IKZF4 (transcript TC1200007822.hg.1): -1.324 | logFC FOXM1 (transcript TC1200009621.hg.1): -2.01 | logFC CDCA3 (transcript TC1200009759.hg.1): -2.054 | logFC MFAP5 (transcript TC1200009834.hg.1): -1.349 | logFC TAS2R10 (transcript TC1200009919.hg.1): -2.012 | logFC MCRS1 (transcript TC1200010633.hg.1): -1.188 | logFC MMAB (transcript TC1200011873.hg.1): -1.164 | logFC WSB2 (transcript TC1200012105.hg.1): -1.343 | logFC CIT (transcript TC1200012143.hg.1): -1.292 | logFC TAPBPL (transcript TC1200012584.hg.1): -1.336 | logFC PRR4 (transcript TC1200012755.hg.1): -1.713 | logFC R3HDM2 (transcript TC1200012808.hg.1): -1.233 | logFC PHF11 (transcript TC1300007167.hg.1): -1.841 | logFC ITGBL1 (transcript TC1300007870.hg.1): -1.539 | logFC DIAPH3 (transcript TC1300009088.hg.1): -1.66 | logFC GAS6 (transcript TC1300009924.hg.1): -1.149 | logFC RHOJ (transcript TC1400007404.hg.1): -2.1714 | logFC BTBD6 (transcript TC1400008476.hg.1): -1.003 | logFC AJUBA (transcript TC1400010715.hg.1): -1.776 | logFC ARHGAP11B (transcript TC1500006785.hg.1): -1.512 | logFC CCNB2 (transcript TC1500007392.hg.1): -2.179 | logFC TPM1 (transcript TC1500007510.hg.1): -1.243 | logFC KIF23 (transcript TC1500007699.hg.1): -1.664 | logFC MAN2A2 (transcript TC1500008341.hg.1): -1.396 | logFC LCTL (transcript TC1500009830.hg.1): -1.502 | logFC PRC1 (transcript TC1500010463.hg.1): -1.211 | logFC ARHGAP11B (transcript TC1500010707.hg.1): -1.7076 | logFC C16orf62 (transcript TC1600007113.hg.1): -1.881 | logFC PLK1 (transcript TC1600007235.hg.1): -1.599 | logFC ARL2BP (transcript TC1600007992.hg.1): -1.083 | logFC SHCBP1 (transcript TC1600010168.hg.1): -1.56 | logFC XAF1 (transcript TC1700006709.hg.1): -1.919 | logFC MPDU1 (transcript TC1700006758.hg.1): -1.716 | logFC GOSR1 (transcript TC1700007454.hg.1): -1.325 | logFC CCL2 (transcript TC1700007557.hg.1): -1.8857 | logFC ABCC3 (transcript TC1700008263.hg.1): -2.846 | logFC BIRC5 (transcript TC1700009043.hg.1): -1.565 | logFC AURKB (transcript TC1700009679.hg.1): -1.67 | logFC CENPV (transcript TC1700009888.hg.1): -1.862 | logFC MED24 (transcript TC1700010599.hg.1): -1.405 | logFC TOP2A (transcript TC1700010618.hg.1): -1.269 | logFC CCDC43 (transcript TC1700010841.hg.1): -0.9856 | logFC ALYREF (transcript TC1700012078.hg.1): -1.381 | logFC SPAG5 (transcript TC1700012380.hg.1): -2.042 | logFC SERPINB8 (transcript TC1800009245.hg.1): -1.496 | logFC NFIC (transcript TC1900006628.hg.1): -1.238 | logFC SYDE1 (transcript TC1900007208.hg.1): -1.288
